{
  "source": "paper PMC8570591",
  "about": "(ACS catalysis, 2021)",
  "molecular_target": "T1, EanB (Chlorobium limicola, UniProt B3ECE3)",
  "T1 sequence (B3ECE3 1-457)": "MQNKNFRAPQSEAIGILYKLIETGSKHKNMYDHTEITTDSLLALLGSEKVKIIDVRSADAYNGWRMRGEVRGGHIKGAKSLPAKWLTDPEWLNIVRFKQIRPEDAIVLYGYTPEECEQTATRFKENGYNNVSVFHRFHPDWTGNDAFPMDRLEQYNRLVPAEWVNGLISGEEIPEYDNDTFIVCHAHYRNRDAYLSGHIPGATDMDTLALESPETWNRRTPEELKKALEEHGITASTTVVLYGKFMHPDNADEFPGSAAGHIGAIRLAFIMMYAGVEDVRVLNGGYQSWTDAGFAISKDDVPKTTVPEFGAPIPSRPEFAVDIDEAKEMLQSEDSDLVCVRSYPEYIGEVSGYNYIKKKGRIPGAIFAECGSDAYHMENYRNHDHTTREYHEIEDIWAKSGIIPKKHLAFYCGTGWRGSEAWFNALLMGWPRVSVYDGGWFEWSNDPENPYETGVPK",
  "assay": "hercynine epsilon-C-H/D2O exchange kinetics by LC-MS, purified enzyme",
  "assay_type": "biochemical",
  "data": [
    {"smiles": "C[N+](C)(C)[C@@H](Cc1cnc[nH]1)C(=O)[O-]", "note": "[compound 2, hercynine]", "values": [
      {"measurement": "Kd", "value": "161 ± 18.6", "unit": "µM"}
    ]}
  ]
}
